From publication PMC10673369, “Preliminary SAR of Novel Pleuromutilin–Polyamine Conjugates” (Microorganisms, 2023)
≈ marks a conversion by molar mass, not a printed value.

Assays:
S. aureus ATCC 25923 = test: MIC, broth dilution, S. aureus; format: cell-based; conditions: Staphylococcus aureus, ATCC25923, mean (n = 3)
Method: (§1) The susceptibility of bacterial strains S. aureus (ATCC 25923), E. coli (ATCC 25922), and P. aeruginosa (ATCC 27853 or PAO1) to antibiotics and compounds was determined using reported protocols. Additional antimicrobial evaluation against MRSA (ATCC 43300), Klebsiella pneumoniae (ATCC 700603), A. baumannii (ATCC 19606), Candida albicans (ATCC 90028), and Cryptococcus neoformans (ATCC 208821) was undertaken at the Community for Open Antimicrobial Drug Discovery at The University of Queensland (Australia) according to their standard protocols as reported previously. […]
(§2) 2.3. Antimicrobial Assays
(§3) The susceptibility of bacterial strains S. aureus (ATCC 25923), E. coli (ATCC 25922), and P. aeruginosa (ATCC 27853 or PAO1) to antibiotics and compounds was determined in microplates using the standard broth dilution method in accordance with the recommendations of the Comité de l’AntibioGramme de la Société Française de Microbiologie (CA-SFM). Briefly, the minimal inhibitory concentrations (MICs) were determined with an inoculum of 10^5 CFU in 200 µL of Mueller–Hinton broth (MHB) containing two-fold serial dilutions of each drug. The MIC was defined as the lowest […]
(§4) determine all MICs, the measurements were independently repeated in triplicate. Additional antimicrobial evaluation against MRSA (ATCC 43300), Klebsiella pneumoniae (ATCC 700603), A. baumannii (ATCC 19606), Candida albicans (ATCC 90028), and Cryptococcus neoformans (ATCC 208821) was undertaken at the Community for Open Antimicrobial Drug Discovery at The University of Queensland (Australia) according to their standard protocols as reported previously. […]
(§5) For C. neoformans, resazurin was added at 0.006% final concentration to each well and incubated for a further 3 h before MICs were determined by measuring […]
(§6) Colistin and vancomycin were used as positive bacterial inhibitor standards for Gram-negative and Gram-positive bacteria, respectively. Fluconazole was used as a positive fungal inhibitor standard for C. albicans and C. neoformans. The antibiotics were provided in […], with 3 above and 3 below its MIC value, and plated into the first 8 wells of column 23 of the 384-well NBS plates. The quality control (QC) of the assays was determined by the antimicrobial controls and the Z'-factor (using positive and negative controls). Each plate was deemed to fulfil the quality criteria (pass QC) if the Z'- […]
(§7) inhibition at their highest concentration, and no growth inhibition at their lowest concentration.
(§8) 2.4. Determination of the MICs of Antibiotics in the Presence of Synergizing Compounds

MRSA ATCC 43300 = test: MIC, CO-ADD broth microdilution, MRSA; format: cell-based, methicillin-resistant S. aureus; conditions: Staphylococcus aureus; MRSA ATCC 43300; mean (n = 2); read-out: MIC MRSA
Method: as §1, §2
(§9) The susceptibility of bacterial strains S. aureus (ATCC 25923), E. coli (ATCC 25922), and P. […]
(§10) baumannii (ATCC 19606), Candida albicans (ATCC 90028), and Cryptococcus neoformans (ATCC 208821) was undertaken at the Community for Open Antimicrobial Drug Discovery at The University of Queensland (Australia) according to their standard protocols as reported previously. For antimicrobial assays, the tested strains were cultured in either Luria broth (LB) (In Vitro Technologies, USB75852), nutrient broth (NB) (Becton Dickson, 234000), or MHB at 37 °C overnight. A sample of culture was then diluted 40-fold in fresh MHB and incubated at 37 °C for 1.5−2 h. The compounds were serially diluted 2-fold across the wells of 96-well plates (Corning 3641, non-binding surface), with compound concentrations ranging from 0.015 to 64 µg/ mL, and plated in duplicate. The resultant mid-log phase cultures were diluted to the final concentration of 1 × 10^6 CFU/mL; then, 50 µL was added to each well of the compound-containing plates, giving a final compound concentration range of 0.008 to 32 µg/mL and a cell density of 5 × 10^5 CFU/mL. All plates were then covered and incubated at 37 °C for 18 h. Resazurin was added at 0.001% final concentration to each well and incubated for 2 h before MICs […]
as §5, §6, §7, §8

E. coli ATCC 25922 = test: MIC, broth dilution, E. coli; format: cell-based, Escherichia coli; conditions: for MIC: Escherichia coli, ATCC25922, mean (n = 3)
Method: as §1, §2, §3, §4

P. aeruginosa PAO1 = test: MIC, broth dilution, P. aeruginosa PAO1; format: cell-based; conditions: mean (n = 3); for MIC: Pseudomonas aeruginosa
Method: as §1, §2, §3, §4, §5, §6, §7, §8

[1] = test system: K. pneumoniae ATCC 700603; test: MIC, CO-ADD broth microdilution, K. pneumoniae; format: cell-based, Klebsiella pneumoniae; conditions: for MIC: Klebsiella pneumoniae, ATCC700603, mean (n = 2)
Method: as §1, §2, §9, §10, §5, §6, §7, §8

A. baumannii ATCC 19606 = test: MIC, CO-ADD broth microdilution, A. baumannii; format: cell-based; conditions: for MIC: Acinetobacter baumannii, ATCC19606, mean (n = 2)
Method: as §1, §2, §9, §10, §5, §6, §7, §8

[2] = Cytotoxicity assay, HEK293; format: cell-based; conditions: human; HEK293 cells; mean (n = 2); read-out: Cytotoxicity (IC50), concentration of compound at 50% cytotoxicity
Method: Cytotoxicity assays were conducted using reported protocols (see Supplementary File). […]
HEK293 cells were counted manually in a Neubauer hemocytometer and plated at a density of 5,000 cells/well into each well of the 384-well plates containing the 25x (2 µL) concentrated compounds [26,27]. The medium used was Dulbecco's modified Eagle’s medium (DMEM), supplemented with 10% fetal bovine serum (FBS). Cells were incubated together with the compounds for 20 h at 37 °C, 5% CO2.
To measure cytotoxicity, 5 µL (equals 100 µM final) of resazurin was added to each well after incubation and incubated for further 3 h at 37 °C with 5% CO2. After the final incubation, fluorescence intensity […]
reader. CC50 values (concentration at 50% cytotoxicity) were calculated by normalizing the fluorescence readout, with 74 µg/mL tamoxifen as negative control (0%) and normal cell growth as positive control (100%). The concentration-dependent percentage cytotoxicity was fitted to a dose–response function (using Pipeline Pilot) and CC50 values were determined. […]

P. aeruginosa ATCC 27853 = test: Antibiotic enhancement of doxycycline; format: cell-based; conditions: for Dox/P.a.: concentration required to restore doxycycline activity: doxycycline at 4.5 µM (2 µg/mL); for Dox/P.a.: fold change, ratio between intrinsic MIC of test compound and combination MIC: doxycycline at 4.5 µM
Method: Antibiotic restoring enhancer concentrations were determined using reported protocols (see Supplementary File).
Briefly, restoring enhancer concentrations were determined with an inoculum of 5x10^5 CFU in 200
µL of MHB containing two-fold serial dilutions of each derivative in the presence of doxycycline at 4.5
The lowest concentration of the polyamine
These measurements were independently repeated in triplicate. […]

SMILES | MIC (S. aureus ATCC 25923) [µM] | MIC (MRSA ATCC 43300) [µM] | MIC (E. coli ATCC 25922) [µM] | MIC E.c. (E. coli ATCC 25922; mean (n = 3)) | MIC (P. aeruginosa PAO1) [µM] | MIC P.a. (P. aeruginosa PAO1) | MIC [1] [µM] | MIC K.p. ([1]; mean (n = 2)) | MIC (A. baumannii ATCC 19606) [µM] | MIC A.b. (A. baumannii ATCC 19606; mean (n = 2)) | IC50 at 20 h [2] [µM] | Dox/P.a.: concentration required to restore doxycycline activity (P. aeruginosa ATCC 27853) [µM] | Dox/P.a.: fold change, ratio between intrinsic MIC of test compound and combination MIC (P. aeruginosa ATCC 27853)
C=C[C@]1(C)C[C@@H](OC(=O)CSCCN(CC)CC)[C@]2(C)[C@H](C)CC[C@]3(CCC(=O)[C@H]32)[C@@H](C)[C@@H]1O [Compound 2, Tiamulin, reference compound] | 3.12 | ≤ 0.51 | 200 (≈ 98.8 µg/mL) | no activity | 800 | no activity | > 64.8 | no activity | > 64.8 | no activity | > 64.8 | > 405 | 
C=C[C@]1(C)C[C@@H](OC(=O)CNCCCNCCCCNCCCNCC(=O)O[C@@H]2C[C@@](C)(C=C)[C@@H](O)[C@H](C)[C@]34CCC(=O)[C@H]3[C@@]2(C)[C@H](C)CC4)[C@]2(C)[C@H](C)CC[C@]3(CCC(=O)[C@H]32)[C@@H](C)[C@@H]1O.O=C(O)C(F)(F)F.O=C(O)C(F)(F)F.O=C(O)C(F)(F)F.O=C(O)C(F)(F)F [Compound 9a, N^1,N^1′-(Butane-1,4-diyl)bis(N^3-(2-(((3aR,4R,5R,7S,8S,9R,9aS,12R)-8-hydroxy-4,7,9,12-tetramethyl-3-oxo-7-vinyldecahydro-4,9a-propanocyclopenta [8]annulen-5-yl)oxy)-2-oxoethyl)propane-1,3-diaminium) 2,2,2-trifluoroacetate] | 18.1 | 23.2 | 18.1 |  | 72.5 |  | > 23.2 |  | > 23.2 |  | > 23.2 | 18.1 | 4
C=C[C@]1(C)C[C@@H](OC(=O)CNCCCNCCCCCCCNCCCNCC(=O)O[C@@H]2C[C@@](C)(C=C)[C@@H](O)[C@H](C)[C@]34CCC(=O)[C@H]3[C@@]2(C)[C@H](C)CC4)[C@]2(C)[C@H](C)CC[C@]3(CCC(=O)[C@H]32)[C@@H](C)[C@@H]1O.O=C(O)C(F)(F)F.O=C(O)C(F)(F)F.O=C(O)C(F)(F)F.O=C(O)C(F)(F)F [Compound 9c, N^1,N^1′-(Heptane-1,7-diyl)bis(N^3-(2-(((3aR,4R,5R,7S,8S,9R,9aS,12R)-8-hydroxy-4,7,9,12-tetramethyl-3-oxo-7-vinyldecahydro-4,9a-propanocyclopenta [8]annulen-5-yl)oxy)-2-oxoethyl)propane-1,3-diaminium) 2,2,2-trifluoroacetate] | 17.6 | ≤ 0.18 | 35.2 |  | > 141 |  | > 22.5 |  | > 22.5 |  | > 22.5 | 141 | 1
C=C[C@]1(C)C[C@@H](OC(=O)CNCCCNCCCCCCCCCCCCNCCCNCC(=O)O[C@@H]2C[C@@](C)(C=C)[C@@H](O)[C@H](C)[C@]34CCC(=O)[C@H]3[C@@]2(C)[C@H](C)CC4)[C@]2(C)[C@H](C)CC[C@]3(CCC(=O)[C@H]32)[C@@H](C)[C@@H]1O.O=C(O)C(F)(F)F.O=C(O)C(F)(F)F.O=C(O)C(F)(F)F.O=C(O)C(F)(F)F [Compound 9f, N^1,N^1′-(Dodecane-1,12-diyl)bis(N^3-(2-(((3aR,4R,5R,7S,8S,9R,9aS,12R)-8-hydroxy-4,7,9,12-tetramethyl-3-oxo-7-vinyldecahydro-4,9a-propanocyclopenta [8]annulen-5-yl)oxy)-2-oxoethyl)propane-1,3-diaminium) 2,2,2-trifluoroacetate] | 2.1 | ≤ 0.17 | 4.19 |  | 33.5 |  | 21.5 |  | 2.7 |  | 8.3 | 8.38 | 4
C=C[C@]1(C)C[C@@H](OC(=O)CNCCCNCCCCCCNCCCNCC(=O)O[C@@H]2C[C@@](C)(C=C)[C@@H](O)[C@H](C)[C@]34CCC(=O)[C@H]3[C@@]2(C)[C@H](C)CC4)[C@]2(C)[C@H](C)CC[C@]3(CCC(=O)[C@H]32)[C@@H](C)[C@@H]1O.O=C(O)C(F)(F)F.O=C(O)C(F)(F)F.O=C(O)C(F)(F)F.O=C(O)C(F)(F)F [Compound 9b, N^1,N^1′-(Hexane-1,6-diyl)bis(N^3-(2-(((3aR,4R,5R,7S,8S,9R,9aS,12R)-8-hydroxy-4,7,9,12-tetramethyl-3-oxo-7-vinyldecahydro-4,9a-propanocyclopenta [8]annulen-5-yl)oxy)-2-oxoethyl)propane-1,3-diaminium) 2,2,2-trifluoroacetate] | 17.8 | ≤ 0.18 | 8.88 |  | 142 |  | > 22.7 |  | > 22.7 |  | > 22.7 | 35.5 | 4
